Where two headings read alike, the source gives them in different places.
Columns and labels:
3T3 cells = test: MTT cell proliferation assay, 3T3 cells; type: cell-based, mouse; details: 3T3 fibroblast cells, incubation approximately 64-72 hours
Experimental: (§1) The MTT cell proliferation assay was used to study the cytotoxic properties of the compounds. The assay was performed according to the method described by Roche Molecular Biochemicals, with minor modifications. The assay is based on the cleavage of the tetrazolium salt, MTT, in the presence of an electron-coupling reagent. The water-insoluble formazan salt produced must be solubilized in an additional step. Cells grown in a 96-well tissue culture plate were incubated with the MTT solution for approximately 4 hours. After this incubation period, a water-insoluble formazan dye formed. After solubilization, the formazan dye was quantitated using a scanning multi-well spectrophotometer (ELISA reader). […] The cells were seeded at 5,000-10,000 cells in each well of 96-well plate in 100 μL of fresh culture medium and were allowed to attach overnight. The stock solutions of the compounds were diluted in […] cell culture medium to obtain eight concentrations of each test compound, ranging from 1 nM to 30 μM. […] All optical densities were measured at 490 nm using a Vmax Kinetic Microplate Reader (Molecular Devices). In most cases, the assay was performed in duplicate and the results were presented as a mean percent inhibition to the negative control±SE. The following formula was used to calculate the percent of inhibition: Inhibition (%)=(1-(ODo/OD))×100.
(§2) The compounds were tested against MS751, Z138 and 3T3 cells. The MS751 cell line is derived from a metastasis to lymph node of human cervix from a patient diagnosed with squameous cell carcinoma of the cervix. The Z138 cell line is a mature B-cell acute lymphoblastic leukemia cell line derived from a patient with chronic lumphocytic leukemia. 3T3 cells are standard fibroblast cells; they were originally isolated from Swiss mouse embryo tissue.

Z138 cells = test: MTT cell proliferation assay, Z138 cells; type: cell-based, human
Experimental: as §1, §2

MS751 cells = test: MTT cell proliferation assay, MS751 cells; type: cell-based, human; details: Homo sapiens, incubation approximately 64-72 hours, read-out: MTT Assay IC50, MS 751
Experimental: as §1, §2

[1] = Homo sapiens, Z-138, incubation approximately 64-72 hours

2-(6-aminopyridin-3-yloxy)-N-((4-(3-(4-fluorophenyl)-4′-(4,4-difluoropiperidine-1-carbonyl)biphenyl-4-yl)furan-2-yl)methyl)acetamide [Compound A028]
IC50 (3T3 cells): > 10000 nM | IC50 (Z138 cells; incubation approximately 64-72 hours, read-out: MTT Assay IC50, Z-138): < 1000 nM

Nc1ccc(/C=C/C(=O)NCc2ccc(-c3ccc(-c4ccc(C(=O)N5CCC(F)(F)CC5)cn4)cc3C(F)(F)F)o2)cn1 [Compound A001, (E)-3-(6-aminopyridin-3-yl)-N-((5-(4-(5-(4,4-difluoropiperidine-1-carbonyl)pyridin-2-yl)-2-(trifluoromethyl)phenyl)furan-2-yl)methyl)acrylamide]
IC50 (3T3 cells; Mus musculus, NIH3T3): 1000 to 5000 nM | IC50 (MS751 cells): < 1000 nM | IC50 (Z138 cells; [1]): < 1000 nM

O=C(/C=C/c1cccnc1)NCc1ccc(-c2ccc(-c3ccc(C(=O)N4CCC(F)(F)CC4)cn3)cc2C(F)(F)F)o1 [Compound A002, (E)-N-((5-(4-(5-(4,4-difluoropiperidine-1-carbonyl)pyridin-2-yl)-2-(trifluoromethyl)phenyl)furan-2-yl)methyl)-3-(pyridin-3-yl)acrylamide]
IC50 (3T3 cells; Mus musculus, NIH3T3): > 10000 nM | IC50 (MS751 cells): < 1000 nM | IC50 (Z138 cells; [1]): < 1000 nM

Nc1ccc(/C=C/C(=O)NCc2ccc(-c3ccc(-c4ccc(C(=O)N5CC(F)(F)C5)cn4)cc3C(F)(F)F)o2)cn1 [Compound A003, (E)-3-(6-aminopyridin-3-yl)-N-((5-(4-(5-(3,3-difluoroazetidine-1-carbonyl)pyridin-2-yl)-2-(trifluoromethyl)phenyl)furan-2-yl)methyl)acrylamide]
IC50 (3T3 cells; Mus musculus, NIH3T3): < 1000 nM | IC50 (MS751 cells): < 1000 nM | IC50 (Z138 cells; [1]): < 1000 nM

Nc1ccc(/C=C/C(=O)NCc2ccc(-c3ccc(-c4ccc(C(=O)N5CCC(F)(F)CC5)cn4)cc3C(F)(F)F)s2)cn1 [Compound A005, (E)-3-(6-aminopyridin-3-yl)-N-((5-(4-(5-(4,4-difluoropiperidine-1-carbonyl)pyridin-2-yl)-2-(trifluoromethyl)phenyl)thiophen-2-yl)methyl)acrylamide]
IC50 (3T3 cells; Mus musculus, NIH3T3): 1000 to 5000 nM | IC50 (MS751 cells): < 1000 nM | IC50 (Z138 cells; [1]): < 1000 nM

Nc1ccc(/C=C/C(=O)NCc2ccc(-c3ccc(-c4ccc(C(=O)N5CCC(F)(F)CC5)cn4)cc3Cl)o2)cn1 [Compound A006, (E)-3-(6-aminopyridin-3-yl)-N-((5-(2-chloro-4-(5-(4,4-difluoropiperidine-1-carbonyl)pyridin-2-yl)phenyl)furan-2-yl)methyl)acrylamide]
IC50 (3T3 cells; Mus musculus, NIH3T3): 1000 to 5000 nM | IC50 (MS751 cells): < 1000 nM | IC50 (Z138 cells; [1]): < 1000 nM

Nc1ccc(/C=C/C(=O)NCc2ccc(-c3ccc(-c4ccc(C(=O)N5CCC(F)(F)CC5)cc4F)cc3-c3ccc(F)cc3)o2)cn1 [Compound A007, (E)-3-(6-aminopyridin-3-yl)-N-((5-(4-(4,4-difluoropiperidine-1-carbonyl)-2,4″-difluoro-[1,1′:3′,1″-terphenyl]-4′-yl)furan-2-yl)methyl)acrylamide]
IC50 (3T3 cells; Mus musculus, NIH3T3): 5000 to 10000 nM | IC50 (MS751 cells): < 1000 nM | IC50 (Z138 cells; [1]): < 1000 nM

Nc1ccc(/C=C/C(=O)NCc2ccc(-c3ccc(-c4ccc(C(=O)N5CCC(F)(F)CC5)cc4)cc3-c3ccc(F)cc3)o2)cn1 [Compound A008, (E)-3-(6-aminopyridin-3-yl)-N-((5-(4-(4,4-difluoropiperidine-1-carbonyl)-4″-fluoro-[1,1′:3′,1″-terphenyl]-4′-yl)furan-2-yl)methyl)acrylamide]
IC50 (3T3 cells; Mus musculus, NIH3T3): 5000 to 10000 nM | IC50 (MS751 cells): < 1000 nM | IC50 (Z138 cells; [1]): < 1000 nM

Nc1ccc(/C=C/C(=O)NCc2ccc(-c3ccc(-c4ccc(C(=O)N5CCC(F)(F)CC5)cc4)cc3-c3cccc(Cl)c3)o2)cn1 [Compound A009, (E)-3-(6-aminopyridin-3-yl)-N-((5-(3″-chloro-4-(4,4-difluoropiperidine-1-carbonyl)-[1,1′:3′,1″-terphenyl]-4′-yl)furan-2-yl)methyl)acrylamide]
IC50 (3T3 cells; Mus musculus, NIH3T3): 1000 to 5000 nM | IC50 (MS751 cells): < 1000 nM | IC50 (Z138 cells; [1]): < 1000 nM

Nc1ccc(/C=C/C(=O)NCc2nnc(-c3ccc(-c4ccc(C(=O)N5CCC(F)(F)CC5)cc4)cc3-c3ccc(F)cc3)o2)cn1 [Compound A010, (E)-3-(6-aminopyridin-3-yl)-N-((5-(4-(4,4-difluoropiperidine-1-carbonyl)-4″-fluoro-[1,1′:3′,1″-terphenyl]-4′-yl)-1,3,4-oxadiazol-2-yl)methyl)acrylamide]
IC50 (3T3 cells; Mus musculus, NIH3T3): > 10000 nM | IC50 (MS751 cells): < 1000 nM | IC50 (Z138 cells; [1]): < 1000 nM

Nc1ccc(/C=C/C(=O)NCc2ccc(-c3ccc(-c4ccc(C(=O)N5CCC(F)(F)CC5)cc4)cc3-c3ccc(F)cc3)[nH]2)cn1 [Compound A011, (E)-3-(6-aminopyridin-3-yl)-N-((5-(4-(4,4-difluoropiperidine-1-carbonyl)-4″-fluoro-[1,1′:3′,1″-terphenyl]-4′-yl)-1H-pyrrol-2-yl)methyl)acrylamide]
IC50 (3T3 cells; Mus musculus, NIH3T3): > 10000 nM | IC50 (MS751 cells): 1000 to 5000 nM | IC50 (Z138 cells; [1]): < 1000 nM

Cc1c(CNC(=O)/C=C/c2ccc(N)nc2)sc(-c2ccc(-c3ccc(C(=O)N4CC(F)C4)cc3)cc2-c2ccc(F)cc2)c1C [Compound A013, (E)-3-(6-aminopyridin-3-yl)-N-((5-(4″-fluoro-4-(3-fluoroazetidine-1-carbonyl)-[1,1′:3′,1″-terphenyl]-4′-yl)-3,4-dimethylthiophen-2-yl)methyl)acrylamide]
IC50 (3T3 cells; Mus musculus, NIH3T3): > 10000 nM | IC50 (MS751 cells): 1000 to 5000 nM | IC50 (Z138 cells; [1]): < 1000 nM

Cc1cc(-c2ccc(-c3ccc(C(=O)N4CC(F)C4)cc3)cc2C(F)(F)F)sc1CNC(=O)/C=C/c1ccc(N)nc1 [Compound A014, (E)-3-(6-aminopyridin-3-yl)-N-((5-(4′-(3-fluoroazetidine-1-carbonyl)-3-(trifluoromethyl)-[1,1′-biphenyl]-4-yl)-3-methylthiophen-2-yl)methyl)acrylamide]
IC50 (3T3 cells; Mus musculus, NIH3T3): 5000 to 10000 nM | IC50 (MS751 cells): < 1000 nM | IC50 (Z138 cells; [1]): < 1000 nM

Nc1ccc(/C=C/C(=O)NCc2ccc(-c3ccc(-c4ccc(C(=O)N5CC(F)(F)C5)cc4)cc3C(F)(F)F)o2)cn1 [Compound A015, (E)-3-(6-aminopyridin-3-yl)-N-((5-(4′-(3,3-difluoroazetidine-1-carbonyl)-3-(trifluoromethyl)-[1,1′-biphenyl]-4-yl)furan-2-yl)methyl)acrylamide]
IC50 (3T3 cells; Mus musculus, NIH3T3): > 10000 nM | IC50 (MS751 cells): < 1000 nM | IC50 (Z138 cells; [1]): < 1000 nM

Cc1c(CNC(=O)/C=C/c2ccc(N)nc2)sc(-c2ccc(-c3ccc(C(=O)N4CC(F)C4)cc3)cc2C(F)(F)F)c1C [Compound A016, (E)-3-(6-aminopyridin-3-yl)-N-((5-(4′-(3-fluoroazetidine-1-carbonyl)-3-(trifluoromethyl)-[1,1′-biphenyl]-4-yl)-3,4-dimethylthiophen-2-yl)methyl)acrylamide]
IC50 (3T3 cells; Mus musculus, NIH3T3): > 10000 nM | IC50 (MS751 cells): > 10000 nM | IC50 (Z138 cells; [1]): > 10000 nM

Cc1c(CNC(=O)/C=C/c2ccc(N)nc2)sc(-c2ccc(C3CC3C(=O)N3CC(F)C3)cc2C(F)(F)F)c1C (stereo not shown) [Compound A017, (E)-3-(6-aminopyridin-3-yl)-N-((5-(4-(2-(3-fluoroazetidine-1-carbonyl)cyclopropyl)-2-(trifluoromethyl)phenyl)-3,4-dimethylthiophen-2-yl)methyl)acrylamide]
IC50 (3T3 cells; Mus musculus, NIH3T3): > 10000 nM | IC50 (MS751 cells): 1000 to 5000 nM | IC50 (Z138 cells; [1]): < 1000 nM

Nc1ccc(/C=C/C(=O)NCc2nnc(-c3ccc(-c4ccc(C(=O)N5CC(F)(F)C5)cc4)cc3C(F)(F)F)o2)cn1 [Compound A018, (E)-3-(6-aminopyridin-3-yl)-N-((5-(4′-(3,3-difluoroazetidine-1-carbonyl)-3-(trifluoromethyl)-[1,1′-biphenyl]-4-yl)-1,3,4-oxadiazol-2-yl)methyl)acrylamide]
IC50 (3T3 cells; Mus musculus, NIH3T3): > 10000 nM | IC50 (MS751 cells): < 1000 nM | IC50 (Z138 cells; [1]): < 1000 nM

Nc1ccc(/C=C/C(=O)NCc2cnc(-c3ccc(-c4ccc(C(=O)N5CC(F)(F)C5)cc4)cc3C(F)(F)F)o2)cn1 [Compound A019, (E)-3-(6-aminopyridin-3-yl)-N-((2-(4′-(3,3-difluoroazetidine-1-carbonyl)-3-(trifluoromethyl)-[1,1′-biphenyl]-4-yl)oxazol-5-yl)methyl)acrylamide]
IC50 (3T3 cells; Mus musculus, NIH3T3): 1000 to 5000 nM | IC50 (MS751 cells): < 1000 nM | IC50 (Z138 cells; [1]): < 1000 nM

Nc1ccc(/C=C/C(=O)NCc2cnc(-c3ccc(-c4ccc(C(=O)N5CC(F)C5)cc4F)cc3C(F)(F)F)o2)cn1 [Compound A020, (E)-3-(6-aminopyridin-3-yl)-N-((2-(2′-fluoro-4′-(3-fluoroazetidine-1-carbonyl)-3-(trifluoromethyl)-[1,1′-biphenyl]-4-yl)oxazol-5-yl)methyl)acrylamide]
IC50 (3T3 cells; Mus musculus, NIH3T3): 1000 to 5000 nM | IC50 (MS751 cells): < 1000 nM | IC50 (Z138 cells; [1]): < 1000 nM

Nc1ccc(/C=C/C(=O)NCc2ccc(-c3cc4c(C(=O)N5CCC(F)(F)CC5)c[nH]c4cc3C(F)(F)F)o2)cn1 [Compound A029, (E)-3-(6-aminopyridin-3-yl)-N-((5-(3-(4,4-difluoropiperidine-1-carbonyl)-6-(trifluoromethyl)-1H-indol-5-yl)furan-2-yl)methyl)acrylamide]
IC50 (3T3 cells; Mus musculus, NIH3T3): > 10000 nM | IC50 (Z138 cells; [1]): < 1000 nM

— US20190218207A1, “3-(Pyridin-3-yl)-Acrylamide and N-(Pyridin-3-yl)-Acrylamide Derivatives and Their Use as PAK or NAMPT Modulators” (Karyopharm Therapeutics Inc., priority 2015, published 2019)
